Assay results as given in US20100256206A1, “CRYSTALLINE FORM B OF OLMESARTAN MEDOXOMIL” (priority 2007, published 2010).

Tests used:
[1] = cited from earlier work
[2] = Thermo-Gravimetric Analysis (TGA) of the powder; assay type: physicochemical; conditions: at processing temperatures and storage temperatures; TGA 25-300° C. @ 5° C./min
Method: The powder obtained by the process according to the invention as described above and in the following examples was also subjected to Thermo-Gravimetric Analysis (TGA). […] Indeed, the DSC and XRPD experiments indicate that no polymorphic transition of crystalline form B occurs up to temperatures of ca. 170° C.
The TGA analysis data was obtained using a Mettler-Toledo TGA851e apparatus under the following parameters:
Temperature profile: 25-300° C. @ 5° C./min
Nitrogen purge gas, 50 ml/min
Aluminium pan, […], pierced prior to scan

[3] = DSC and XRPD experiments, polymorphic transition; assay type: physicochemical
Method: The X-ray powder diffraction data was obtained by methods known in the art using a Bruker D8 Advance Powder Diffractometer with scintillation detector under the following parameters: Reflection mode Cu Kα radiation (1.5406 Å) Scanning range: 2-50 °2θ Step size: 0.02 °2θ Time per step: 2 s The powder obtained by the process according to the invention as described above and in the following examples was also subjected to Differential Scanning Calorimetry (DSC). The DSC thermal analysis data was obtained using a Mettler-Toledo DSC821e apparatus under the following parameters: • Temperature profile: 25-300° C. @ 5° C./min • Nitrogen purge gas, 50 ml/min • Aluminium pan, […], pierced prior to scan The powder obtained by the process according to the invention as described above and in the following examples was also subjected to Thermo-Gravimetric Analysis (TGA). […] Indeed, the DSC and XRPD experiments indicate that no polymorphic transition of crystalline form B occurs up to temperatures of ca. 170° C.

SMILES	aqueous solubility [1]	chemical stability, degradation by conversion to other polymorphic forms [2]	temperature up to which no polymorphic transition occurs [3]
CCCc1nc(C(C)(C)O)c(C(=O)OCc2oc(=O)oc2C)n1Cc1ccc(-c2ccccc2-c2nnn[nH]2)cc1 [Olmesartan medoxomil, 2,3-dihydroxy-2-butenyl 4-(1-hydroxy-1-methylethyl)-2-propyl-1-[p-(o-tetrazol-5-yl-phenyl)benzyl]imidazole-5-carboxylate cyclic 2,3-carbonate]	very low	–	–
CCCc1nc(C(C)(C)O)c(C(=O)OCc2oc(=O)oc2C)n1Cc1ccc(-c2ccccc2-c2nnn[nH]2)cc1 [crystalline form B, 2,3-dihydroxy-2-butenyl 4-(1-hydroxy-1-methylethyl)-2-propyl-1-[p-(o-tetrazol-5-yl-phenyl)benzyl]imidazole-5-carboxylate cyclic 2,3-carbonate]	–	chemically stable	ca. 170 °C
